Test results reported in ChEMBL document CHEMBL5335785, “Structure-based virtual screening discovers potent and selective adenosine A1 receptor antagonists” (Eur J Med Chem, 2023).

What was measured:
[1] = target: T1, Adenosine receptor A1 (Homo sapiens, UniProt P30542); assay: Antagonist activity at human A1R expressed in Flp-In-CHO cells assessed as NECA-mediated reduction in forskolin-stimulated cAMP accumulation incubated for 30 to 60 mins followed by forskolin/NECA addition measured after 30 mins by LANCE cAMP assay (reference value: 8.74 +/- 0.08); type: functional, cell-based
T1 sequence (P30542 whole entry): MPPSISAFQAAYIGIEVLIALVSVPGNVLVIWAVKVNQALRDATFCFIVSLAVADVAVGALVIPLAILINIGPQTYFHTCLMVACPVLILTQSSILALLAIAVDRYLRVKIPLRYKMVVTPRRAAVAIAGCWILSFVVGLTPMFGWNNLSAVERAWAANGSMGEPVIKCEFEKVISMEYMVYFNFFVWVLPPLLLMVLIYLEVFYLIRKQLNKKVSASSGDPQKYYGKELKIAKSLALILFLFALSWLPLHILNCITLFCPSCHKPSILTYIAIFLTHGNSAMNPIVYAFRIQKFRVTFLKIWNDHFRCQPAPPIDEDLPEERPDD

[2] = target: T2, Adenosine receptor A2a (Homo sapiens, UniProt P29274); conditions: Flp-In-CHO, time 60-90 min
[3] = target: T3, Adenosine receptor A1 (Homo sapiens) (UniProt P30542); conditions: Flp-In-CHO, time 60-90 min
T3 sequence (whole entry): T1 sequence (P30542 whole entry)

[4] = target: T1, Adenosine receptor A1; assay: Displacement of [3H]DPCPX from human A1R expressed in Flp-In-CHO cells incubated for 12 hrs by microbeta plate counter analysis; type: cell-based
[5] = target: T2, Adenosine receptor A2a; assay: Antagonist activity at human A2AR expressed in Flp-In-CHO cells assessed as NECA-mediated cAMP accumulation incubated for 30 to 60 mins followed by NECA addition measured after 30 mins by LANCE cAMP assay (reference value: 8.38 +/- 0.03); type: functional, cell-based

T2 sequence (P29274 whole entry): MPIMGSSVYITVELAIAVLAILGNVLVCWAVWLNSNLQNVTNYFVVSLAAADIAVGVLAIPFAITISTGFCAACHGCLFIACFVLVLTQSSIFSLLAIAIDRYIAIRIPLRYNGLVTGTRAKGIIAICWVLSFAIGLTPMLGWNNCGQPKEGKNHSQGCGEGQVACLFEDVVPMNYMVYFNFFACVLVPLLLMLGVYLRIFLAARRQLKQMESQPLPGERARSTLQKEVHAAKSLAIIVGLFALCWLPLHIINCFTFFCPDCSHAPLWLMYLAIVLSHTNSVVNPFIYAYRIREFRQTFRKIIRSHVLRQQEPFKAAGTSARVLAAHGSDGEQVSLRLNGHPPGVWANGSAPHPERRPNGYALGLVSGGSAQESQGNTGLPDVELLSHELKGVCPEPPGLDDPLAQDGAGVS

SMILES | EC50 [1] [nM] | pKb ([2]; filed as antagonist) | pKb ([3]; filed as antagonist) | further results
CC(Sc1nnc(C(C)C)[nH]1)C(=O)c1ccccc1 (stereo unspecified) | 3.31 |  |  | 
Cc1coc(C(=O)Nc2nc3c(s2)Cc2ccccc2-3)c1C |  |  |  | pKb [3]: < 5.5
c1csc(-c2nc(NC3CCCCCC3)ncc2-c2ccncc2)c1 |  | 6.79 | 8.1 | 
CC(C)N1CC(C(=O)Nc2nc3ccccc3[nH]2)CC1=O (stereo unspecified) |  |  |  | EC50 [5]: 20.4 nM
CC1(CNc2ncc(-c3ccncc3)c(-c3cccs3)n2)COC1 |  |  |  | pKb [2]: < 5.5; pKb [3]: < 5.5
Cn1c(=O)c2[nH]c(N(CCO)CCO)nc2n(C)c1=O | 17 |  |  | EC50 [5]: 6.92 nM; Ki ([4]; read-out: pKi (converted)): 2820 nM
O=C(Nc1nc2c(s1)Cc1ccccc1-2)c1ncn2cc(Cl)ccc12 |  |  |  | pKb [3]: < 5.5
c1ccc(CNc2nc(N3CCCCC3)c3nccnc3n2)nc1 | 2.51 |  |  | 
O=C(Nc1noc(-c2ccccc2)n1)c1cccc(Cl)c1 | 2.82 |  |  | EC50 [5]: 10.5 nM
CC(C)(CNc1ncc(-c2ccncc2)c(-c2cccs2)n1)C1CCC1 |  | 6.09 | 7.15 | 
CC(=O)NC(CC(=O)Nc1nc(C(C)=O)cs1)c1ccc(C)cc1 (stereo unspecified) | 2.57 |  |  | 
CC(=O)N1CCC(Nc2ncc(-c3ccncc3)c(-c3cccs3)n2)CC1 |  | 6.57 | 7.82 | 
COc1ccc(C(=O)Nc2nc(C)c3cc4c(cc3n2)OCO4)cc1 | 1.91 |  |  | 
c1csc(-c2nc(NC3CCC4(CC3)OCCO4)ncc2-c2ccncc2)c1 |  | 6.53 | 7.07 | 
Cc1nnsc1C(=O)Nc1nc2c(s1)Cc1ccccc1-2 |  |  |  | EC50 [5]: 63.1 nM
O=C(CC1CCCC1)N1CCc2c(nc(N3CCCC3)[nH]c2=O)C1 |  |  |  | EC50 [5]: 4.47 nM
Cc1c(C(=O)Nc2nc3c(s2)Cc2ccccc2-3)ccc2cncn12 |  |  |  | pKb [2]: < 5.5; pKb [3]: < 5.5
CC1(CNc2ncc(-c3ccncc3)c(-c3cccs3)n2)OCCO1 |  |  | 6.38 | pKb [2]: < 5.5
CCOc1nc(NC(CO)c2ccco2)ncc1Br (stereo unspecified) | 14.8 |  |  | Ki ([4]; read-out: pKi (converted)): 2450 nM
Cc1cccnc1C(=O)Nc1nc2c(s1)Cc1ccccc1-2 |  |  |  | pKb [3]: < 5.5
CCC1CCC(C(=O)Nc2nc3c(s2)Cc2ccccc2-3)CC1 (stereo unspecified) |  |  |  | pKb [2]: < 5.5; pKb [3]: < 5.5
Cc1ccc2nc(C(=O)Nc3cnc4n3CCCC4)cn2c1 |  |  |  | EC50 [5]: 4.57 nM
COCC(O)CNc1ncc(C)c(-c2ncnn2C)n1 (stereo unspecified) | 2.34 |  |  | EC50 [5]: 4.57 nM

Second part, led by results:

EC50 [1] [nM] | pKb ([2]; filed as antagonist) | pKb ([3]; filed as antagonist) | SMILES | further results
 | 6.3 | 7.57 | O=C(Nc1nc2c(s1)Cc1ccccc1-2)C12CC3CC(CC1C3)C2 | Ki ([4]; read-out: Ki): 72 nM
 |  | 6.67 | Cc1cccc(C(=O)Nc2nc3c(s2)Cc2ccccc2-3)c1C | pKb [2]: < 5.5
 | 6.87 | 7.29 | O=C(Nc1nc2c(s1)Cc1ccccc1-2)C1CCCCCC1 | 
 | 7.4 | 7.86 | CC1(C(=O)Nc2nc3c(s2)Cc2ccccc2-3)CCCC1 | 
3.24 |  |  | O=C(Nc1nc(C2CC2)cs1)C1COc2ccccc2C1 (stereo unspecified) | 
 | 7.03 | 7.7 | C=C1CCC(C(=O)Nc2nc3c(s2)Cc2ccccc2-3)CC1 | 
3.63 |  |  | O=C(Nc1nc2ccccc2s1)N(CCO)C1CC1 | EC50 [5]: 6.03 nM
 | 7 | 7.24 | O=C(Nc1nc2c(s1)Cc1ccccc1-2)C1CCCCC1 | 
 | 7.25 | 6.7 | COC1(OC)CC(C)(C(=O)Nc2nc3c(s2)Cc2ccccc2-3)C1 | 
 | 7.25 | 7.85 | CC1(C(=O)Nc2nc3c(s2)Cc2ccccc2-3)CCC(=O)CC1 | 
